Measurements reported in patent publication US9856290B2, “Glycopeptide compositions and uses thereof” (SUSSEX RESEARCH LABORATORIES INC., priority 2013, dated 2018).
Marks after values point to notes of the source that are not given here. Primed or numbered codes have the meaning given here. The star is where a group is joined. Ac4‑β‑Gal = tetraacetyl-β-galactoside (peracetylated β-galactose), CC(=O)OC[C@H]1O[C@@H](*)[C@H](OC(C)=O)[C@@H](OC(C)=O)[C@H]1OC(C)=O; Ac3‑α‑GalNAc″ = peracetylated alpha-N-acetylgalactosamine, CC(=O)N[C@@H]1[C@@H](OC(C)=O)[C@@H](OC(C)=O)[C@@H](COC(C)=O)O[C@@H]1*; Ac3‑β‑GlcNAc = per-acetylated β-N-acetylglucosamine, CC(=O)N[C@@H]1[C@@H](OC(C)=O)[C@H](OC(C)=O)[C@@H](COC(C)=O)O[C@H]1*; Ac4‑β‑Glc = per-acetylated β-glucose (tetraacetyl), CC(=O)OC[C@H]1O[C@@H](*)[C@H](OC(C)=O)[C@@H](OC(C)=O)[C@@H]1OC(C)=O; αGalNAc = CC(=O)N[C@@H]1[C@@H](O)[C@@H](O)[C@@H](CO)O[C@@H]1*; βGlcNAc = CC(=O)N[C@@H]1[C@@H](O)[C@H](O)[C@@H](CO)O[C@H]1*; βGlc = OC[C@H]1O[C@@H](*)[C@H](O)[C@@H](O)[C@@H]1O; Palmitoyl = CCCCCCCCCCCCCCCC(=O)*

Assays:
[1] = system: Human Dermal Fibroblasts (KMST-6); test: ECM ELISA assay: elastin secretion by human dermal fibroblasts; assay type: cell-based; details: 5 μM; for Elastin Secretion at 48 hours: KMST-6, 48 hours; for Elastin Secretion at 48 hours / Elastin Secretion at 72 hours: % compared to control set at 100%, normalized to total protein; for Elastin Secretion at 72 hours / ELASTIN (ECM Protein Summary Table): KMST-6, 72 hours; for ELASTIN (ECM Protein Summary Table): control 100%
Experimental: (§1) KMST-6 cells (Japan Health Sciences Foundation, JCRB0433) were seeded at 7,000 cells/ml in 12-well tissue culture treated plates (Falcon, 353043) in complete media. The complete media consisted of the following: MEM/EBSS (Hyclone, SH30024.01), 10% Heat-Inactivated FBS (Gibco, 10082-147), 1% L-Glutamine (Hyclone, SH30031.01), 1% Nucleosides (800 mg/L Adenosine, 850 mg/L Guanidine, 730 mg/L Cytidine, 730 mg/L Uridine and 240 mg/L Thymidine), 1% Penicillin/Streptomycin (HyClone, SV30010), 1% Sodium Pyruvate (HyClone, SH30239.01), 1% Non-Essential Amino Acids (Hyclone, SH30238.01) and 0.04% Gentamicin (Gibco, 15710-064). Cells were grown for 2 days prior to treatments. The media was aspirated and cells were washed with 1×PBS (Fisher, SH30256.01) and treated with 5 μM (1 mL/well) glycopeptides, reference (Pal-KTTKS, CPC Scientific, 822197), and control (DMSO, Fisher, BP231-100) in serum-free media supplemented with 50 μg/mL Sodium Ascorbate (Sigma, A4034) and 80 μg/mL β-Aminopropionate Fumarate (Sigma, A3134). The treated cells were incubated at 37° C. and 5% CO2 for 48 and 72 hours. At each timepoint, media from each treatment was collected and centrifuged at 1500 RPM for 15 minutes at 4° C. The supernatant was collected and stored at −80° C. for extracellular matrix protein quantification. The following kits were used for quantification of ECM proteins: Fibronectin (Takara, MK115) and Elastin (Uscn Life Science Inc., E91337Hu). The cells were harvest and lysed with 250 μL Lysis Buffer (20 mM Tris-HCl (Sigma, T1503), 137 mM NaCl (Sigma, S9888), 2 mM EDTA (Fisher, BP118), 1% IGEPAL (Sigma, 18896), 10% Glycerol (Sigma, G5516), 100 μM PMSF (Fisher, 36978) and 10 μg/mL Leupeptin (Sigma-Aldrich, L2884). They were placed on a container of ice on a plate shaker (Lab-Line Instruments, 3595) for 30 minutes. The lysate was centrifuged at 10,000 g for 5 minutes at 4° C. The supernatant was collected and used for protein quantification (BioRad, 500-0112).
(§2) To determine effects on extracellular matrix protein secretion, 5 μM of individual glycopeptides were incubated with Human Dermal Fibroblasts (KMST-6). The control sample cells were treated with DMSO (Fisher, BP231-100). As described previously, supernatant was collected from treated cells (at two time-points, 48 and 72 hours of treatment) and stored at −80° C. for subsequent extracellular matrix protein quantification using ELISA kits (Fibronectin (Takara, MK115), Elastin (Uscn Life Science Inc., E91337Hu). For the determination of total cellular protein, treated cells were harvested and lysed. The lysate was centrifuged, the supernatant was collected and then used for protein quantification (BioRad, 500-0112). ELISA plates were read on the plate reader (Molecular Devices) at absorbance of 450 nm and SoftMax Pro software was used to compute the μg/ml values of protein of interest derived from the generated 4-parameter fit standard curve. Each μg/ml of protein secreted was normalized to total protein per well. The data was analysed by averaging out normalized values from at least three independent experiments and presenting them as a % compared to control treatment set at 100% (Table 2-5). Statistical significance was performed using One-way ANOVA (p<0.05) where “*” represents statistical significance when compared to control and “#” represents statistical significance when compared to reference. […]

[2] = system: Human Dermal Fibroblasts (KMST-6); test: ECM ELISA assay: fibronectin secretion by human dermal fibroblasts; assay type: cell-based; details: 5 μM; for biological activity in fibronectin secretion compared to control: 72 hours; for Fibronectin secretion at 48 hours: KMST-6, 48 hours; for Fibronectin secretion at 48 hours / Fibronectin Secretion at 72 hours: % compared to control set at 100%, normalized to total protein; for Fibronectin Secretion at 72 hours / FIBRONECTIN (ECM Protein Summary Table): KMST-6, 72 hours; for FIBRONECTIN (ECM Protein Summary Table): control 100%
Experimental: as §1, §2

Substance: Pal-KTTKS(Ac4-β-Gal)-OH (Palmitoyl-KTTKS(Ac4‑β‑Gal)-OH; SMILES CCCCCCCCCCCCCCCC(=O)N[C@@H](CCCCN)C(=O)N[C@H](C(=O)N[C@H](C(=O)N[C@@H](CCCCN)C(=O)N[C@@H](CO[C@@H]1O[C@H](COC(C)=O)[C@H](OC(C)=O)[C@H](OC(C)=O)[C@H]1OC(C)=O)C(=O)O)[C@@H](C)O)[C@@H](C)O; listed as Homo sapiens) [GP002-7]
- biological activity in elastin secretion compared to control ([1]; 72 hours): greater biological activity
- increased elastin secretion compared to control ([1]; 72 hours, versus DMSO control): 107%
- Elastin Secretion at 48 hours [1]: 198.3%
- Elastin Secretion at 72 hours [1]: 207.1* %
- ELASTIN (ECM Protein Summary Table) [1]: 207* %
- biological activity in fibronectin secretion compared to control [2]: greater biological activity
- Fibronectin secretion at 48 hours [2]: 113.7%
- Fibronectin Secretion at 72 hours [2]: 116.1%
- FIBRONECTIN (ECM Protein Summary Table) [2]: 116%

Substance: Pal-KT(Ac3-β-GlcNAc)TKS-OH (Palmitoyl-KT(Ac3‑β‑GlcNAc)TKS-OH; SMILES CCCCCCCCCCCCCCCC(=O)N[C@@H](CCCCN)C(=O)N[C@H](C(=O)N[C@H](C(=O)N[C@@H](CCCCN)C(=O)N[C@@H](CO)C(=O)O)[C@@H](C)O)[C@@H](C)O[C@@H]1O[C@H](COC(C)=O)[C@@H](OC(C)=O)[C@H](OC(C)=O)[C@H]1NC(C)=O; listed as Homo sapiens) [GP001-5]
- Elastin Secretion at 48 hours [1]: 81.67%
- Elastin Secretion at 72 hours [1]: 90.00%
- Fibronectin secretion at 48 hours [2]: 125.0%
- Fibronectin Secretion at 72 hours [2]: 105.0%

Substance: Pal-KTTKS(β-Glc)-OH (Palmitoyl-KTTKS(βGlc)-OH; SMILES CCCCCCCCCCCCCCCC(=O)N[C@@H](CCCCN)C(=O)N[C@H](C(=O)N[C@H](C(=O)N[C@@H](CCCCN)C(=O)N[C@@H](CO[C@@H]1O[C@H](CO)[C@@H](O)[C@H](O)[C@H]1O)C(=O)O)[C@@H](C)O)[C@@H](C)O; listed as Homo sapiens) [GP002-4]
- Elastin Secretion at 48 hours [1]: 145.0%
- Elastin Secretion at 72 hours [1]: 142.0%
- Fibronectin secretion at 48 hours [2]: 121.5%
- Fibronectin Secretion at 72 hours [2]: 116.0%

Substance: Pal-KTTKS(β-GlcNAc)-OH (Palmitoyl-KTTKS(βGlcNAc)-OH; SMILES CCCCCCCCCCCCCCCC(=O)N[C@@H](CCCCN)C(=O)N[C@H](C(=O)N[C@H](C(=O)N[C@@H](CCCCN)C(=O)N[C@@H](CO[C@@H]1O[C@H](CO)[C@@H](O)[C@H](O)[C@H]1NC(C)=O)C(=O)O)[C@@H](C)O)[C@@H](C)O; listed as Homo sapiens) [GP002-6]
- Elastin Secretion at 48 hours [1]: 150.7%
- Elastin Secretion at 72 hours [1]: 111.0%
- Fibronectin secretion at 48 hours [2]: 109.7%
- Fibronectin Secretion at 72 hours [2]: 115.8%

Substance: Pal-KT(β-Glc)TKS-OH (Palmitoyl-KT(βGlc)TKS-OH; SMILES CCCCCCCCCCCCCCCC(=O)N[C@@H](CCCCN)C(=O)N[C@H](C(=O)N[C@H](C(=O)N[C@@H](CCCCN)C(=O)N[C@@H](CO)C(=O)O)[C@@H](C)O)[C@@H](C)O[C@@H]1O[C@H](CO)[C@@H](O)[C@H](O)[C@H]1O; listed as Homo sapiens) [GP001-2]
- Elastin Secretion at 48 hours [1]: 102.8%
- Elastin Secretion at 72 hours [1]: 94.50%
- Fibronectin secretion at 48 hours [2]: 133.0%
- Fibronectin Secretion at 72 hours [2]: 115.4%

Substance: Pal-KT(β-GlcNAc)TKS-OH (Palmitoyl-KT(βGlcNAc)TKS-OH; SMILES CCCCCCCCCCCCCCCC(=O)N[C@@H](CCCCN)C(=O)N[C@H](C(=O)N[C@H](C(=O)N[C@@H](CCCCN)C(=O)N[C@@H](CO)C(=O)O)[C@@H](C)O)[C@@H](C)O[C@@H]1O[C@H](CO)[C@@H](O)[C@H](O)[C@H]1NC(C)=O; listed as Homo sapiens) [GP001-6]
- Elastin Secretion at 48 hours [1]: 91.00%
- Elastin Secretion at 72 hours [1]: 81.50%
- Fibronectin secretion at 48 hours [2]: 123.2%
- Fibronectin Secretion at 72 hours [2]: 100.0%

Substance: Pal-KTT(β-Glc)KS-OH (Palmitoyl-KTT(βGlc)KS-OH; SMILES CCCCCCCCCCCCCCCC(=O)N[C@@H](CCCCN)C(=O)N[C@H](C(=O)N[C@H](C(=O)N[C@@H](CCCCN)C(=O)N[C@@H](CO)C(=O)O)[C@@H](C)O[C@@H]1O[C@H](CO)[C@@H](O)[C@H](O)[C@H]1O)[C@@H](C)O; listed as Homo sapiens) [GP001-8]
- Elastin Secretion at 48 hours [1]: 94.25%
- Elastin Secretion at 72 hours [1]: 91.25%
- Fibronectin secretion at 48 hours [2]: 106.4%
- Fibronectin Secretion at 72 hours [2]: 106.2%

Substance: Pal-KTTKS(Ac3-α-GalNAc)-OH (Palmitoyl-KTTKS(Ac3‑α‑GalNAc″)-OH; SMILES CCCCCCCCCCCCCCCC(=O)N[C@@H](CCCCN)C(=O)N[C@H](C(=O)N[C@H](C(=O)N[C@@H](CCCCN)C(=O)N[C@@H](CO[C@H]1O[C@H](COC(C)=O)[C@H](OC(C)=O)[C@H](OC(C)=O)[C@H]1NC(C)=O)C(=O)O)[C@@H](C)O)[C@@H](C)O; listed as Homo sapiens) [GP002-1]
- Elastin Secretion at 48 hours [1]: 144.8%
- Elastin Secretion at 72 hours [1]: 145.5%
- Fibronectin secretion at 48 hours [2]: 114.7%
- Fibronectin Secretion at 72 hours [2]: 108.0%

Substance: Pal-KTT(α-GalNAc)KS-OH (Palmitoyl-KTT(αGalNAc)KS-OH; SMILES CCCCCCCCCCCCCCCC(=O)N[C@@H](CCCCN)C(=O)N[C@H](C(=O)N[C@H](C(=O)N[C@@H](CCCCN)C(=O)N[C@@H](CO)C(=O)O)[C@@H](C)O[C@H]1O[C@H](CO)[C@H](O)[C@H](O)[C@H]1NC(C)=O)[C@@H](C)O; listed as Homo sapiens) [GP001-10]
- Elastin Secretion at 48 hours [1]: 103.0%
- Elastin Secretion at 72 hours [1]: 98.67%
- Fibronectin secretion at 48 hours [2]: 100.2%
- Fibronectin Secretion at 72 hours [2]: 104.0%

Substance: Pal-N(Ac4-β-Glc)KTTKS-OH (Palmitoyl-N(Ac4‑β‑Glc)KTTKS-OH; listed as Homo sapiens) [GP003-7]
- Elastin Secretion at 48 hours [1]: 105.0%
- Elastin Secretion at 72 hours [1]: 148.2%
- Fibronectin secretion at 48 hours [2]: 139.8%
- Fibronectin Secretion at 72 hours [2]: 118.5%

Substance: Pal-KT(Ac4-β-Glc)TKS-OH (Palmitoyl-KT(Ac4‑β‑Glc)TKS-OH; SMILES CCCCCCCCCCCCCCCC(=O)N[C@@H](CCCCN)C(=O)N[C@H](C(=O)N[C@H](C(=O)N[C@@H](CCCCN)C(=O)N[C@@H](CO)C(=O)O)[C@@H](C)O)[C@@H](C)O[C@@H]1O[C@H](COC(C)=O)[C@@H](OC(C)=O)[C@H](OC(C)=O)[C@H]1OC(C)=O; listed as Homo sapiens) [GP001-1]
- biological activity in elastin secretion compared to control ([1]; 72 hours): greater biological activity
- Elastin Secretion at 48 hours [1]: 205.3%
- Elastin Secretion at 72 hours [1]: 188.0%
- ELASTIN (ECM Protein Summary Table) [1]: 188%
- biological activity in fibronectin secretion compared to control [2]: greater biological activity
- Fibronectin secretion at 48 hours [2]: 159.3* %
- Fibronectin Secretion at 72 hours [2]: 121.5%
- FIBRONECTIN (ECM Protein Summary Table) [2]: 122%

Substance: Pal-KS(β-Glc)TKS-OH (Palmitoyl-KS(βGlc)TKS-OH; SMILES CCCCCCCCCCCCCCCC(=O)N[C@@H](CCCCN)C(=O)N[C@@H](CO[C@@H]1O[C@H](CO)[C@@H](O)[C@H](O)[C@H]1O)C(=O)N[C@H](C(=O)N[C@@H](CCCCN)C(=O)N[C@@H](CO)C(=O)O)[C@@H](C)O; listed as Homo sapiens) [GP003-4]
- Elastin Secretion at 48 hours [1]: 136.8%
- Elastin Secretion at 72 hours [1]: 120.8%
- Fibronectin secretion at 48 hours [2]: 165.8* %
- Fibronectin Secretion at 72 hours [2]: 132.5%
